Measurements from publication PMC2045673, “Site-specific acetylation of ISWI by GCN5” (BMC Molecular Biology, 2007).

Columns and labels:
Assay in all cases: radiometric HAT assay, SDS-PAGE autoradiography
Assay type in all cases: biochemical
[1] = target: T1, GCN5 (GST-hGCN5) (Homo sapiens, UniProt Q92830); conditions: labelled compound; co-substrate histones, ISWI or peptide; pH 7.8, 26 °C
T1 construct: gene KAT2A; GST-tagged, recombinant from E. coli

[2] = target: T2, MOF (HA-MOF) (Drosophila melanogaster, UniProt O02193); conditions: labelled compound; co-substrate histones; pH 7.8, 26 °C
T2 construct: HA-tagged recombinant MOF
T2 sequence (O02193 1-827): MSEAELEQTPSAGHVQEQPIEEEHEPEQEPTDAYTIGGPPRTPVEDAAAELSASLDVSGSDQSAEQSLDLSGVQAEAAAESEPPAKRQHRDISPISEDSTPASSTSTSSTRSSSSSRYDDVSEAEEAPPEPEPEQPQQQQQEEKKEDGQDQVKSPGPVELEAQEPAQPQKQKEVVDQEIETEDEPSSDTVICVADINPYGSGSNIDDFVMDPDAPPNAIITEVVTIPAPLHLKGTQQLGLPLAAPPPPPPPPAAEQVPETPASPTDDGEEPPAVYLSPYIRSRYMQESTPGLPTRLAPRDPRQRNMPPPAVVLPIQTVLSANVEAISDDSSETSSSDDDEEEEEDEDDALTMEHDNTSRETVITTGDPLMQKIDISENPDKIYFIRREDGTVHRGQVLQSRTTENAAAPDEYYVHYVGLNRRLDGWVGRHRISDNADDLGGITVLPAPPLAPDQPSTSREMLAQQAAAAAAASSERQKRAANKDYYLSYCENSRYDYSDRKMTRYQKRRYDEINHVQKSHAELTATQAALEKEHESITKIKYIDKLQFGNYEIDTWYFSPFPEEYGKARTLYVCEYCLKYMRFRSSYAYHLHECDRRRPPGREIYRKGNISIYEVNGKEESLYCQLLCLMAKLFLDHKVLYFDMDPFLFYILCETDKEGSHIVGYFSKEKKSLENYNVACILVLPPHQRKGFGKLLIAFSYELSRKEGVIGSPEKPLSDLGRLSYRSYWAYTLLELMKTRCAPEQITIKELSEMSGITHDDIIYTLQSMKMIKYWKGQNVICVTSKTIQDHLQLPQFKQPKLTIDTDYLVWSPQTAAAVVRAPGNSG

[3] = target: T3, p300 (FLAG-p300) (Homo sapiens, UniProt Q09472); conditions: labelled compound; co-substrate histones, ISWI or peptide; pH 7.8, 26 °C
T3 construct: gene EP300; FLAG-tagged recombinant p300
T3 sequence (Q09472 2-2414): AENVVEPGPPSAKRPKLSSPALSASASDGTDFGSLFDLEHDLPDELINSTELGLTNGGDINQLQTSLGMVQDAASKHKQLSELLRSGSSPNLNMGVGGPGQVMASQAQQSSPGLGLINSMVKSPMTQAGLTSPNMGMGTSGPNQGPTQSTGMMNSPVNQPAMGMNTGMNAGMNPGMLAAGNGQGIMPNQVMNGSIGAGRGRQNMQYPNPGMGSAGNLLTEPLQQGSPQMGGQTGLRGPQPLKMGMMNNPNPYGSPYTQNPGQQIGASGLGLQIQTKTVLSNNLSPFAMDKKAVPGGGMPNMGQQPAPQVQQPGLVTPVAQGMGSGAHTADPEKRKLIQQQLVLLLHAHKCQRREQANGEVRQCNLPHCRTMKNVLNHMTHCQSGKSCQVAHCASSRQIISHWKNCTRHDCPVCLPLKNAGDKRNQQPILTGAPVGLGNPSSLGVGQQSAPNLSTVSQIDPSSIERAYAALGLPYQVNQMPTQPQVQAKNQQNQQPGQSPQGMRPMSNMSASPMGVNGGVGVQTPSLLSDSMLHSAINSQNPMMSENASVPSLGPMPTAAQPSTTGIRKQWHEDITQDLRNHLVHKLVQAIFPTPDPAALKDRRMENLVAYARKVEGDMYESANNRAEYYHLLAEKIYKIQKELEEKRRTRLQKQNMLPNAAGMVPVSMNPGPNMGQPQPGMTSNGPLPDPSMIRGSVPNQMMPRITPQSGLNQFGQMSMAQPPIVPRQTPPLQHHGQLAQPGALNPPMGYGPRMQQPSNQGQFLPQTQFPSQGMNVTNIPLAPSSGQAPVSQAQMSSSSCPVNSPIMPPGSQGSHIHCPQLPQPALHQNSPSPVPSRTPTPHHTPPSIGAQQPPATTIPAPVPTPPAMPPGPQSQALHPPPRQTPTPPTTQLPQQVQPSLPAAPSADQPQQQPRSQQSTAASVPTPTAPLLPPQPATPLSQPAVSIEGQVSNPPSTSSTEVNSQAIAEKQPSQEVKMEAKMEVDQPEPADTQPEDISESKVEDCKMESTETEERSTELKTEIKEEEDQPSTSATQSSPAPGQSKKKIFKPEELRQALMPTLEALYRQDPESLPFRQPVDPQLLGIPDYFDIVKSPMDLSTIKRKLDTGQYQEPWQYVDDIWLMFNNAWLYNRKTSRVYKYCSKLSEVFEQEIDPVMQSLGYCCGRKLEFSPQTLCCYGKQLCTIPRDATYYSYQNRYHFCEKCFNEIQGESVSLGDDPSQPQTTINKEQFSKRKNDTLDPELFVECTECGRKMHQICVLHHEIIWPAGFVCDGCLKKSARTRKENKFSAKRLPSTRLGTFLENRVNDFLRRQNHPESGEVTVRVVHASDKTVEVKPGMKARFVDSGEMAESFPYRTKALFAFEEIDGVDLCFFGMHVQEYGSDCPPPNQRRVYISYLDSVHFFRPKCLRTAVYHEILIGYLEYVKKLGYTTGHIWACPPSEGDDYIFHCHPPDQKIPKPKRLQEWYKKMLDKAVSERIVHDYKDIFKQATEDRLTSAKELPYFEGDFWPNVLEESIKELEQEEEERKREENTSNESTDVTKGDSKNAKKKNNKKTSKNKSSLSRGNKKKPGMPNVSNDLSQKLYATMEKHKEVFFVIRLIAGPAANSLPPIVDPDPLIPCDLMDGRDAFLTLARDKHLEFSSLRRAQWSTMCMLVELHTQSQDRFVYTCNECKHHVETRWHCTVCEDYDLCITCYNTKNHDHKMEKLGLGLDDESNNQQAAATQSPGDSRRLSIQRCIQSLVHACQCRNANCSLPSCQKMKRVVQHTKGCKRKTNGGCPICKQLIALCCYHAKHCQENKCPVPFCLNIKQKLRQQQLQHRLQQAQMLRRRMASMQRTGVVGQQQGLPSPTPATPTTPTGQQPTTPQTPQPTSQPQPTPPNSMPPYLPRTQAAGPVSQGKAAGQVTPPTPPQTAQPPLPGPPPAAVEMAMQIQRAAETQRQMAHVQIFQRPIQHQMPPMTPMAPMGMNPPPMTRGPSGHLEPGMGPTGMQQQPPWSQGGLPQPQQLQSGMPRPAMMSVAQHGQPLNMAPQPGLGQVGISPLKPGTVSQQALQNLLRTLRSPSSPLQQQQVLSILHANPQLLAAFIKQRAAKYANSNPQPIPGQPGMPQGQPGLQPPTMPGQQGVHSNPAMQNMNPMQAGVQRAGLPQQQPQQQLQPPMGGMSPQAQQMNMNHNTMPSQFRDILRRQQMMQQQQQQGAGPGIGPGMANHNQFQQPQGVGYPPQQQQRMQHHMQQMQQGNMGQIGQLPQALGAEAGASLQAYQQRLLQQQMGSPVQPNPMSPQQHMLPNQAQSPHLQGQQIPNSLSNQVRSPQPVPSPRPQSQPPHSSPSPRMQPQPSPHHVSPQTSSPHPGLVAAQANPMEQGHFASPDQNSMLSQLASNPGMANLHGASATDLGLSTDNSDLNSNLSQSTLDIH

T1 sequence (Q92830 whole entry): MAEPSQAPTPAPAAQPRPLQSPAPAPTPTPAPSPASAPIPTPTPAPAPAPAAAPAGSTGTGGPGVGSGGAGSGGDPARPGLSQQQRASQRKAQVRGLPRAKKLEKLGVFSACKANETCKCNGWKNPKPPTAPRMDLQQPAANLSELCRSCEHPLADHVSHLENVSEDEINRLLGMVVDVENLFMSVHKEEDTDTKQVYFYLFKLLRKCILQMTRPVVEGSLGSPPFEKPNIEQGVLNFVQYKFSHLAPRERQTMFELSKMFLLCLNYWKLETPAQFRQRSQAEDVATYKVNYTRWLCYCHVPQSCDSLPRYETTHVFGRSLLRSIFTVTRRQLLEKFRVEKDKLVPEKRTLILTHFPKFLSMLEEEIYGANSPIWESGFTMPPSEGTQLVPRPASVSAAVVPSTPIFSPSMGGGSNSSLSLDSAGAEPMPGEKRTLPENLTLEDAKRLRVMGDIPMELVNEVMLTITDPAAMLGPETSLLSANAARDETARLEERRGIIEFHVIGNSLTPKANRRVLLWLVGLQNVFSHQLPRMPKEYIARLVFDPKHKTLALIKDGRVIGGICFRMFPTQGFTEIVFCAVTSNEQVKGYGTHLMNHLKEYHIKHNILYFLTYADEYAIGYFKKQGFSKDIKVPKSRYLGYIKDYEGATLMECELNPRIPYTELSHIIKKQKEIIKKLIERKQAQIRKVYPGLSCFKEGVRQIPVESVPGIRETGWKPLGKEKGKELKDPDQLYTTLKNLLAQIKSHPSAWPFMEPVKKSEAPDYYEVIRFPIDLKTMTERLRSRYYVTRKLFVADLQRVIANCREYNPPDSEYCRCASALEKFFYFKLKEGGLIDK

CC(=O)SCCNC(=O)CCNC(=O)[C@H](O)C(C)(C)COP(=O)(O)OP(=O)(O)OC[C@H]1O[C@@H](n2cnc3c(N)ncnc32)[C@H](O)[C@@H]1OP(=O)(O)O [acetyl-CoA] was tested. Which “radiometric HAT assay, SDS-PAGE autoradiography” value (from here on “radiometric HAT assay”) [1] did it give?
Its value is “The histone acetyltransferase activities of recombinant GCN5, p300 and MOF were assayed”.

And the “radiometric HAT assay” value [2]?
The value was “The histone acetyltransferase activities of recombinant GCN5, p300 and MOF were assayed”.

What about the “radiometric HAT assay” value [3] of the same compound?
Its value is “The histone acetyltransferase activities of recombinant GCN5, p300 and MOF were assayed”.
